Among the data in ChEMBL document CHEMBL2331478, “Evaluation of constituents of Piper retrofractum fruits on neurotrophic activity” (J Nat Prod, 2013) are Activity values, retold here.

For experiment [1], the system named is PC-12. The experiment is described as follows: Potentiation of NGF-induced neurite outgrowth in rat PC12 cells at 0.1 to 10 uM after 4 days using methylene blue staining by phase-contrast microscopy. The experiment is classed as functional, cell-based.
The subject of experiment [2] is PC-12. The experiment is described as follows: Potentiation of NGF-induced neurite outgrowth in rat PC12 cells after 4 days using methylene blue staining by phase-contrast microscopy. The experiment is classed as functional, cell-based.

Calls of active or inactive are those of the source. The calls are words filed in the database; no cut-off is given here.

In the case of `CCCCC/C=C\CCCC/C=C/C=C/C(=O)NCC(C)C`, the outcome in the experiment on PC-12 [1] was inactive. Take `O=C(CCC(=O)c1ccc2c(c1)OCO2)C(=O)N1CCCCC1`: the Activity entry in the experiment with PC-12 [2] is “Dose-dependent effect”. Turning to `O=C(/C=C/C=C/c1ccc2c(c1)OCO2)N1CCCCC1`, the result with PC-12 [1] was inactive. With `O=C(/C=C/CCCCCCCC/C=C/c1ccc2c(c1)OCO2)N1CCCCC1`, in the experiment on PC-12 [1], the outcome was inactive.
